Measured values taken from US20070231871A1, “Process for an Enzymatic Oxygenation by Direct Electrochemical Regeneration of the Fad-Dependent Monooxygenase” (priority 2004, published 2007).
Marks after values point to notes of the source that are not given here.

Molecular target: T1, Styrene monooxygenase (StyAB), FAD-dependent monooxygenase component (StyA) (Pseudomonas sp, UniProt O50214)
T1 construct: made in house; host or cells: Escherichia coli JM101
T1 sequence (O50214 1-415): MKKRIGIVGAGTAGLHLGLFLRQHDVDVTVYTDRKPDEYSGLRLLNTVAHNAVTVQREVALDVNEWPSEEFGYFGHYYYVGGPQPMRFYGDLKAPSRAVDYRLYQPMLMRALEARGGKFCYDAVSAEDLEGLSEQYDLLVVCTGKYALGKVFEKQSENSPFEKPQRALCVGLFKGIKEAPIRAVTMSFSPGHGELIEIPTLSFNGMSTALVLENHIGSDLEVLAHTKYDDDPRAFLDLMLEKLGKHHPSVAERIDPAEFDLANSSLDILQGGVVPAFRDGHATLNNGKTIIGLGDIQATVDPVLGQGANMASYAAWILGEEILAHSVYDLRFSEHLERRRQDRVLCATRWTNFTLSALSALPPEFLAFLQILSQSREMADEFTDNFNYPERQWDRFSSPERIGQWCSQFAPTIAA
Test: Electroenzymatic epoxidation of styrene derivatives by StyA with direct electrochemical FAD regeneration
Assay type: biochemical
Conditions: for ee-value: optical purity of the (S)-epoxide product of the electroenzymatic epoxidation
Method: Initial experiments on the electroenzymatic epoxidation were performed with trans-β-methyl styrene as substrate. Electrolyses were performed potentiostatically applying a cathode potential of −550 mV vs. Ag/AgClsat. No product formation was detectable when either StyA or FAD was omitted from the reaction medium. […] Similarly, a broad variety of diversely substituted vinylaromatic compounds could be transformed to the more than 98% optically pure corresponding (S) epoxides (Table 1).
StyA was enriched from recombinant Escherichia coli JM101 as described previously^[35]. The purity of the lyophilized biocatalyst was approximately 70% (as determined by SDS gel-electrophoresis).
Electrolyses were performed in a thermostatted stirred tank reactor. Cylindrical carbon felt served as cathode (working electrode) and the potential was adjusted versus a saturated Ag/AgClsat. reference electrode. The dimensions of the working electrode are given a macroscopic area (corresponding to an average of 27.1±2.1 mg cm^−2). Conditions of either a divided or an undivided cell were chosen. For the divided cell, the Pt-wire counter electrode was placed in a dialysis membrane; otherwise a Pt-foil (Ø1 cm) was used. After supplementing the reactor with the reaction components indicated a cathode potential of −550 mV vs. Ag/AgClsat was applied. In case of divided cell, O2 was supplied by heterogeneous intake of air (intake rates were estimated with a Hewlett Packard soap film flowmeter; under the conditions of an undivided cell, O2 was generated at the counter electrode.
Reaction rates (and enzyme performances calculated thereof were determined based on the product formation as determined by HPLC using protocols previously reported.^[34, 35]

[1] = potassium phosphate buffer 50 mM pH 7.5, T = 30° C., c(StyA) = 2.13 μM, c(FAD) = 300 μM, catalase 480 U mL^−1, substrate 2 mM, cathode 14 cm^2, −550 mV vs. Ag/AgClsat

| SMILES | Rate [1] [U g^−1] | ee-value [%] | other results |
| --- | --- | --- | --- |
| C=Cc1ccccc1 | 28.1 | – | – |
| c1ccc([C@H]2CO2)cc1 | – | 98.5 | – |
| C=C(C)c1ccccc1 | 14.6 | – | – |
| C[C@]1(c2ccccc2)CO1 | – | 99.5 | – |
| C1=Cc2ccccc2CC1 | 58.9 | – | – |
| c1ccc2c(c1)CC[C@H]1O[C@@H]21 | – | 99.2 | – |
| C=Cc1cccc(Cl)c1 | – | – | Rate (as general conditions but T = 25° C., activity determined after 15 min): 27.7 [b] U g^−1 |
| Clc1cccc([C@H]2CO2)c1 | – | 98.1 | – |
| C[C@@H]1O[C@H]1c1ccccc1 [(1S,2S)-1-phenylpropylene oxide] | – | >99.9 | Optical purity of product (substrate trans-β-methyl styrene, −550 mV vs. Ag/AgClsat, all reaction components present): practically enantiopure |
| C/C=C/c1ccccc1 [trans-β-methyl styrene] | 35.5 | – | – |
